Columns and labels:
Format in all cases: cell-based, human
HCT116 cells [1] = assay: H&E staining of morphological changes; conditions: HCT116, 2.5, 5, 10 μM, 24 h
Description: Induction of apoptosis is the mechanism of action of many anti-proliferative drugs. When cells undergo apoptosis, they generally also undergo morphological changes ([Liu et al., 2009]). Therefore, we used H&E staining to assess morphological changes in the cells.
FIGURE 5 Cell morphological alterations and nuclear changes associated with HCT116 cells after incubation with varying concentrations E (0, 2.5, 5, 10 μM) for 24 h were assessed by staining with H&E and visualized by microscopy.

Bcl-2 = assay: Western blot, Bcl-2 expression; conditions: HCT116, 10 μM, 24 h
Description: The Bcl-2 protein family (including the anti-apoptotic protein Bcl-2 and the pro-apoptotic protein Bax) is a group of key apoptotic proteins that play an important role in the regulation of apoptosis ([Han et al., 2013]; [Zhang and Saghatelian, 2013]; [Zheng et al., 2021]). HCT116 cells were treated with different concentrations (2.5, 5, and 10 μM) of E to detect the expression of Bax and Bcl-2 proteins.
(§1) FIGURE 7 Effect of compound E on the levels of Bax, and Bcl-2 in HCT116 cells. Cells were pretreated with the various concentrations of compound E (2.5, 5 and 10 μM) for 24 h. The expression of Bax, and Bcl-2 were analyzed by Western blot. ***p < 0.001, **p < 0.01, *p < 0.05 vs. control group. The error bars represent the mean ± SD for three independent experiments.
HCT116 cells were cultured with different concentrations of compound E for 24 h. Then, the floating cells were collected and washed twice with ice-cold PBS. Add cold RIPA buffer. After the cells were lysed on ice for 20 min, the lysate was centrifuged at 12,000 rpm for 15 min at 4°C. The BCA method determines the protein concentration. Separated by SDS/PAGE electrophoresis and transferred to a nitrocellulose filter membrane for Western blot analysis. The membrane was blocked with PBS containing 5% skim milk at room temperature for 2 h. […] The protein is detected by electrochemiluminescence (Bio-Rad, CA, United State).

JNK = assay: Western blot, MAPK signaling pathway: JNK; conditions: HCT116, 10 μM, 24 h
Excerpt: (§2) Extracellular signal-regulated kinases are the most closely related MAPK. MAPK, a family of serine/threonine protein kinases, is also an important transmitter of signaling from the cell surface to the nucleus, and it is involved in the regulation of many physiological processes, including apoptosis ([Bian et al., 2021]). The MAPK pathway has been implicated in regulating tumor angiogenesis, proliferation, metastasis and invasion ([Ko et al., 2017]). MAPK family is mainly composed of ERK, p38 and JNK subfamily.
as §1, with “9” for “7”, “[…]” for “the levels of Bax, and Bcl-2”, “phospho-ERK, ERK, phospho-JNK, JNK, phospho-p38, p38” for “Bax, and Bcl-2”
(§3) HCT116 cells were cultured with different concentrations of compound E for 24 h. Then, the floating cells were collected and washed twice with ice-cold PBS. Add cold RIPA buffer. After the cells were lysed on ice for 20 min, the lysate was centrifuged at 12,000 rpm for 15 min at 4°C. The BCA method determines the protein concentration. […] The protein is detected by electrochemiluminescence (Bio-Rad, CA, United State).

HCT116 cells [2] = assay: Colony formation assay; conditions: HCT116, 2.5, 5, 10 μM, 7 days
Description: The colony-forming cell assay was used to determine the ability of cells to proliferate and differentiate into colonies and thereby to investigate the anti-proliferative efficacy of compound E ([Lei et al., 2015]).
FIGURE 3 Colony formation of HCT116 cells inhibited by compound E. (A) HCT116 cells were incubated with varying concentrations of E (0, 2.5, 5, 10 μM) and stained with crystal violet. (B) The micrographic differences between the colonies. Images were taken of stained single colonies observed under a microscope.
Exponentially growing HCT116 cells (600 cells per well) were plated on 6-well plates with Roswell Park Memorial Institute (RPMI) 1,640 medium containing 10% fetal bovine serum (FBS). After incubating for 12 h, replace with fresh medium. Then, the cells were treated with different concentrations of compound E (2.5, 5 and 10 μM) dissolved in DMSO. Some cells only use DMSO as a negative control. Then incubate for another 7 days. Finally, the cells were fixed with 95% ethanol for 25 min, stained with 0.1% crystal violet for 15 min at room temperature, and then washed with PBS until the […] were completely removed.

ERK = assay: Western blot, MAPK signaling pathway: ERK; conditions: HCT116, 10 μM, 24 h
Excerpt: as §2
as §1, with “9” for “7”, “[…]” for “the levels of Bax, and Bcl-2”, “phospho-ERK, ERK, phospho-JNK, JNK, phospho-p38, p38” for “Bax, and Bcl-2”
as §3

For CC1(C)CC[C@]2(C(=O)OCCn3nnnc3-c3ccccc3)[C@H](O)C[C@]3(C)C(=CC[C@@H]4[C@@]5(C)CC[C@H](O)[C@@](C)(C=O)[C@@H]5CC[C@]43C)[C@@H]2C1 [Compound E, 2-(5-phenyl-1H-tetrazol-1-yl)ethyl (4aR,5R,6aS,6bR,8aR,9S,10S,12aR,12bR,14bS)-9-formyl-5,10-dihydroxy-2,2,6a,6b,9,12a-hexamethyl-1,3,4,5,6,6a,6b,7,8,8a,9,10,11,12,12a,12b,13,14b-octadecahydropicene-4a (2H)-carboxylate], the “morphological changes (H&E staining)” value (HCT116 cells [1]) was “significant apoptotic morphological changes”, the “level of Bcl-2” value (Bcl-2) was “decreased” and the “phosphorylation level of JNK” value (JNK) was “down-regulated”. For the same compound, the “colony formation (number and size of colonies)” value (HCT116 cells [2]) was “significantly decreased the number and size of colonies in a concentration-dependent manner” and the “phosphorylation level of ERK” value (ERK) was “down-regulated”.

Reference: article PMC9490060, “Synthesis and evaluation of anticancer activity of quillaic acid derivatives: A cell cycle arrest and apoptosis inducer through NF-κB and MAPK pathways” (Frontiers in Chemistry, 2022)
